Experimental data published in patent US8603502B2, “Compositions comprising jasmonic acid derivatives and use of these derivatives” (L'Oreal S.A., priority 2002, dated 2013).

Key:
Type in all cases: cell-based
isolated stratum corneum [1] = assay: Keratolytic power, Test 2: counting corneocytes released from isolated stratum corneum, comparison with jasmonic acid; conditions: 1% by weight solution in PBS + 0.1% Triton X100, pH 7.4; 37° C., 24 hours
Experimental: (§1) The keratolytic power of a number of compounds of this disclosure was studied. This test comprises counting corneocytes released following incubation of patches of isolated stratum corneum in the presence of the test compounds.
(§2) Stratum corneum isolated by trypsin/heat from surgical plasties was used. A number of different stratum corneum samples were used. Discs of 4 mm in diameter were punched out and placed at the bottom of a 96-well plate.
A 1% by weight solution of the compound of Example 1, or jasmonic acid (comparison), was prepared in a PBS buffer supplemented with 0.1% of Triton X100. The pH of the solution was adjusted to 7.4.
(§3) 50 microliters of test solution or of control solution (PBS buffer supplemented with 0.1% of Triton X100) were added to each well. Incubation was carried out at 37° C. with stirring for 24 hours.
(§4) 10 microliters of solution were then withdrawn and were placed in a Malassez cell. The liberated corneocytes were counted under the microscope.
The results obtained are as follows, expressed as the number of liberated corneocytes per microliter, averaged over three tests. Corneocyte fragments are not counted.

isolated stratum corneum [2] = assay: Keratolytic power, Test 1: counting corneocytes released after incubating patches of isolated stratum corneum with the test compound; conditions: 1% by weight solution in PBS + 0.1% Triton X100, pH 7.4, 37° C., 24 hours
Experimental: as §1, §2
A 1% by weight solution of the compound of Example 3 was prepared in a PBS buffer supplemented with 0.1% of Triton X100. The pH of the solution was adjusted to 7.4.
as §3, §4
The results obtained are as follows, expressed as the number of liberated corneocytes per microliter, averaged over three tests. Corneocyte fragments were not counted.

isolated stratum corneum [3] = assay: Keratolytic power, Test 3: counting corneocytes released from isolated stratum corneum, PEG 8/ethanol vehicle; conditions: 2% by weight solution in water with 50% PEG 8 and 30% ethanol, 37° C., 24 hours; for number of liberated corneocytes per microliter, Sample 1: Sample 1, average over three tests; for number of liberated corneocytes per microliter, Sample 2: Sample 2, average over three tests; for number of liberated corneocytes per microliter, Average: average of Samples 1-2
Experimental: as §1, §2
A 2% by weight solution of the compound of Example 3, or 2-hydroxy-4-octanoylbenzoic acid (comparison), was prepared in an aqueous solution containing 50% by weight of polyethylene glycol (PEG 8) and 30% by weight of ethanol.
50 microliters of test solution or of control solution were added to each well. Incubation was carried out at 37° C. with stirring for 24 hours.
10 microliters of solution were then withdrawn and were placed in a Mallassez cell. The liberated corneocytes were counted under the microscope.
The results obtained are as follows, expressed as the number of liberated corneocytes per microliter, averaged over the three tests. Corneocyte fragments were not counted.

For `CC/C=C\C[C@H]1C(=O)CC[C@@H]1CC(=O)O` (racemic) [Jasmonic acid, (+/−)(1R,2R)-3-oxo-2-[(2Z)-2-pentyl]cyclopentaneacetic acid], the “number of liberated corneocytes per microliter, Average (3 tests per sample, 3 different samples)” value (isolated stratum corneum [1]) was 15 ± 5 per microliter.
`CCCCC[C@H]1C(O)CC[C@@H]1CC(=O)O` (mixture of isomers) [Example 3, (+/−)(1R,2R)-3-hydroxy-2-pentylcyclopentaneacetic acid] was tested, and the “number of liberated corneocytes per microliter, Average” value (isolated stratum corneum [2]; average of Samples 1-3) was 61 ± 33 per microliter, the “number of liberated corneocytes per microliter, Sample 1” value (from here on “number … per microliter, Sample 1”) (isolated stratum corneum [2]; stratum corneum Sample 1, average over three tests) was 28 ± 9 per microliter and the “number of liberated corneocytes per microliter, Sample 2” value (“number … per microliter, Sample 2” below) (isolated stratum corneum [2]; stratum corneum Sample 2, average over three tests) was 56 ± 7 per microliter. For the same compound, the “number of liberated corneocytes per microliter, Sample 3” value (isolated stratum corneum [2]; stratum corneum Sample 3, average over three tests) was 101 ± 11 per microliter, the “number … per microliter, Sample 1” value (isolated stratum corneum [3]) was 2 ± 3 per microliter and the “number … per microliter, Sample 2” value (isolated stratum corneum [3]) was 3 ± 1 per microliter. For the same compound, the “number of liberated corneocytes per microliter, Average” value (isolated stratum corneum [3]) was 2.5 ± 2 per microliter.
`CC/C=C\C[C@H]1C(O)CC[C@@H]1CC(=O)O` (mixture of isomers) [Example 1, (+/−)(1R,2R)-3-hydroxy-2-[(2Z)-2-pentenyl]cyclopentaneacetic acid] was tested, and the “number of liberated corneocytes per microliter, Average (3 tests per sample, 3 different samples)” value (isolated stratum corneum [1]) was 26 ± 7 per microliter.
With `CCCCCCCC(=O)c1ccc(C(=O)O)c(O)c1` [2-Hydroxy-4-octanoylbenzoic acid, 2-hydroxy-4-octanoylbenzoic acid, reference compound] the “number … per microliter, Sample 1” value (isolated stratum corneum [3]) was 3 ± 3 per microliter, the “number … per microliter, Sample 2” value (isolated stratum corneum [3]) was 4 ± 3 per microliter and the “number of liberated corneocytes per microliter, Average” value (isolated stratum corneum [3]) was 3.5 ± 3 per microliter.
